{"source": "ChEMBL document CHEMBL3132769", "about": "“Fragment growing to retain or alter the selectivity of anchored kinase hinge-binding fragments” (Medchemcomm, 2014)", "key": {"[1]": {"target": "Fibroblast growth factor receptor 1 (Homo sapiens) (UniProt P11362)", "sequence (P11362 22-822 limits assumed)": "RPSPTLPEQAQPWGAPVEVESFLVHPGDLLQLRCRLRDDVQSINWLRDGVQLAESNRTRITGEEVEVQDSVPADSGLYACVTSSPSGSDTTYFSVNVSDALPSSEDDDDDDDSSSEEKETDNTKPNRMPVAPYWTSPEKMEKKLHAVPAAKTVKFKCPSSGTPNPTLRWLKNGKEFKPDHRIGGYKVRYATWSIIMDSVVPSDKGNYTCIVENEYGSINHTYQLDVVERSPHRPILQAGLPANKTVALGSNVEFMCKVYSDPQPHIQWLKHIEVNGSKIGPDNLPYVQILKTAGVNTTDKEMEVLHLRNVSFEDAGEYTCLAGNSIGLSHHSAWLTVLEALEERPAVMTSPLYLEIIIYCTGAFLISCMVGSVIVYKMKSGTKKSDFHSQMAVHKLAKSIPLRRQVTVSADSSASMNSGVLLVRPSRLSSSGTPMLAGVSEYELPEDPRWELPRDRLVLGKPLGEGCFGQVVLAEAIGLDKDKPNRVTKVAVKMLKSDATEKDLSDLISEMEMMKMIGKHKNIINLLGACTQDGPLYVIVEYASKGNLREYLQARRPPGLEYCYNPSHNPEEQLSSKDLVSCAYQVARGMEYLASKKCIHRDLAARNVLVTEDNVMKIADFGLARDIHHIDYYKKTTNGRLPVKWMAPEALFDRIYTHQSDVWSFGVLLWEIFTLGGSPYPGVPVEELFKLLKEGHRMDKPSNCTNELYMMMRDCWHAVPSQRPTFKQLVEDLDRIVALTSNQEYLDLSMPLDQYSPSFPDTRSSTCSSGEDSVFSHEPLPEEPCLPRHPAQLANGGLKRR", "assay": "Inhibition of human FGFR1 catalytic domain expressed in baculovirus assessed as substrate phosphorylation using fluorescence-labelled peptides as substrate at 0.2 uM after 90 mins by microfluidic peptide phosphorylation assay"}, "[2]": {"target": "T1, Serine/threonine-protein kinase 3 (Homo sapiens) (UniProt Q13188)", "T1 sequence (whole entry)": "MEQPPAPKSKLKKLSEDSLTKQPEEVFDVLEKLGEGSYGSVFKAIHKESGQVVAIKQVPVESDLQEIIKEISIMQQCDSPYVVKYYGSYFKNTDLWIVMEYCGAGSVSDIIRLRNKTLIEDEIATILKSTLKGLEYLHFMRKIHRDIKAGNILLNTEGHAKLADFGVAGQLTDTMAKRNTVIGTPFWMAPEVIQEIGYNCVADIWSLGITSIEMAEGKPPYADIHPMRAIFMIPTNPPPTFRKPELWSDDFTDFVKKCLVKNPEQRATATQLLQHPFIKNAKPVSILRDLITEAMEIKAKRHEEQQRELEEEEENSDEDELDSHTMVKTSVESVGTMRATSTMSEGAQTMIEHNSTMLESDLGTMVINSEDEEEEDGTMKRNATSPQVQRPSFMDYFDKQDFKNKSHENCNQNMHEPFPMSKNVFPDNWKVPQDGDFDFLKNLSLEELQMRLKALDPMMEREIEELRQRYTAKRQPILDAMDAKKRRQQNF", "assay": "Inhibition of human full length MST2 expressed in baculovirus assessed as substrate phosphorylation using fluorescence-labelled peptides as substrate at 420 uM after 90 mins by microfluidic peptide phosphorylation assay"}, "[3]": {"target": "T2, Serine/threonine-protein kinase Sgk2 (Homo sapiens) (UniProt Q9HBY8)", "T2 sequence (whole entry)": "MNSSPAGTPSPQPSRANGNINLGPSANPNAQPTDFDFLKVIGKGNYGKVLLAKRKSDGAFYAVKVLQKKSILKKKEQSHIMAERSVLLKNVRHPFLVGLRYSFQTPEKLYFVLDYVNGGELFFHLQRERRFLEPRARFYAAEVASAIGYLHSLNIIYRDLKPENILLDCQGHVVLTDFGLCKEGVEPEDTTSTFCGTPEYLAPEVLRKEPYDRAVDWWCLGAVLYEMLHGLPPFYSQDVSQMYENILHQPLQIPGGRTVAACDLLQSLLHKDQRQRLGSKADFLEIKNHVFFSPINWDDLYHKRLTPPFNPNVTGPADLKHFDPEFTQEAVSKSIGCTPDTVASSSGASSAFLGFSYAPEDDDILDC", "assay": "Inhibition of human full length SGK2 expressed in baculovirus assessed as substrate phosphorylation using fluorescence-labelled peptides as substrate at 9 uM after 90 mins by microfluidic peptide phosphorylation assay"}, "[4]": {"target": "Casein kinase I isoform alpha (Homo sapiens) (UniProt P48729)", "sequence (P48729 2-337 limits assumed)": "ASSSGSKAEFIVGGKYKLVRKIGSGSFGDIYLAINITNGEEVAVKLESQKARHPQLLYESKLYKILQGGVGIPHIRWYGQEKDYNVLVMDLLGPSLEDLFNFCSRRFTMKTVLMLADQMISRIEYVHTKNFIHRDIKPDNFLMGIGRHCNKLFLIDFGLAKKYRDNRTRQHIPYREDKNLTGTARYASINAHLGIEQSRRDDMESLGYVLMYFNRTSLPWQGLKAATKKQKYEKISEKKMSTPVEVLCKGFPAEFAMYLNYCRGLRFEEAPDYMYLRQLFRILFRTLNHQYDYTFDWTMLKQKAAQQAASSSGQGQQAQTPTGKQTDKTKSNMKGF", "assay": "Inhibition of human full length CSNK1A1 expressed in baculovirus assessed as substrate phosphorylation using fluorescence-labelled peptides as substrate at 9 uM after 90 mins by microfluidic peptide phosphorylation assay"}, "[5]": {"target": "MAP kinase-activated protein kinase 2 (Homo sapiens) (UniProt P49137)", "sequence (P49137 whole entry, looked up)": "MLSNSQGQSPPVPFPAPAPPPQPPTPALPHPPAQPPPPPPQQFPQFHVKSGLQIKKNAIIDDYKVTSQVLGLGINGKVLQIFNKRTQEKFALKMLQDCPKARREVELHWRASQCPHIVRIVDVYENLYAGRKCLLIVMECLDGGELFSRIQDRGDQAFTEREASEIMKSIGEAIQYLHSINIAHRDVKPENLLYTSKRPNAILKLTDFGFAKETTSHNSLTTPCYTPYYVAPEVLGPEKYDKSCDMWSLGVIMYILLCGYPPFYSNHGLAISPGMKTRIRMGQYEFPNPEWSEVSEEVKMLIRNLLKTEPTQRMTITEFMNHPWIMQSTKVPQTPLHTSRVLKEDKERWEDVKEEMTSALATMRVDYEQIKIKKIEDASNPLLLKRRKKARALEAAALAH", "details": "0.1 uM", "description": "Inhibition of human full length MAPKAPK2 expressed in baculovirus assessed as substrate phosphorylation using fluorescence-labelled peptides as substrate at 0.1 uM after 90 mins by microfluidic peptide phosphorylation assay"}, "[6]": {"target": "Protein kinase C theta type (Homo sapiens) (UniProt Q04759)", "sequence (Q04759 whole entry, looked up, the tested form may be a part)": "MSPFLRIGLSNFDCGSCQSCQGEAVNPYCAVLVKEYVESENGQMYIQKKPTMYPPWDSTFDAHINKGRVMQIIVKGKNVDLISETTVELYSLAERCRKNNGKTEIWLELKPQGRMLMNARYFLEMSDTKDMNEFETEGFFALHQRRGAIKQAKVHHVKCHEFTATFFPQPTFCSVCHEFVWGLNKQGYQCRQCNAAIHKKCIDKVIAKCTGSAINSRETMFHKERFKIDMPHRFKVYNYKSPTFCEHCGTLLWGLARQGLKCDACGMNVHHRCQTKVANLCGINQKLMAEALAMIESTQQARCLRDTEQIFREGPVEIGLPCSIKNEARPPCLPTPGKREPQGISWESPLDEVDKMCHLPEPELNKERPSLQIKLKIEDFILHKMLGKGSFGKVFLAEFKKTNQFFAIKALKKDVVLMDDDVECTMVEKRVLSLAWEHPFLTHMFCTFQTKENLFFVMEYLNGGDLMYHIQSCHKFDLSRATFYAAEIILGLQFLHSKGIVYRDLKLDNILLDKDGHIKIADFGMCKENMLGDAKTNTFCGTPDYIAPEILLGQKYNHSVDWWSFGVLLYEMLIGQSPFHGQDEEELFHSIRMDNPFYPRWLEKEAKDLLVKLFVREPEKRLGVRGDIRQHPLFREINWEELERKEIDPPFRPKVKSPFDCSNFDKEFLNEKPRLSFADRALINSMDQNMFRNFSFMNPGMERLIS", "assay": "Inhibition of human truncated PKC theta expressed in baculovirus assessed as substrate phosphorylation using fluorescence-labelled peptides as substrate at 95 uM after 90 mins by microfluidic peptide phosphorylation assay"}, "[7]": {"target": "T3, Mitogen-activated protein kinase 12 (Homo sapiens) (UniProt P53778)", "T3 sequence (whole entry)": "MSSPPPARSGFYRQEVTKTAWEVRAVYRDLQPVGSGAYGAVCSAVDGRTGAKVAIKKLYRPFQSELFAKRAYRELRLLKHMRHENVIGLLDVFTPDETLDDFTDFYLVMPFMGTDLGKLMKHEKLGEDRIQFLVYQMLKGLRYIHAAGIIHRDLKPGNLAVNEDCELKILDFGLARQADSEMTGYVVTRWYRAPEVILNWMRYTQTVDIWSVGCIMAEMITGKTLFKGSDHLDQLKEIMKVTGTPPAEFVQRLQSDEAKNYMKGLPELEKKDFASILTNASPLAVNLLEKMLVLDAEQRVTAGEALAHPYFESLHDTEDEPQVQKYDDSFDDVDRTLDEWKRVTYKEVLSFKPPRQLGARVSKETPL", "assay": "Inhibition of human full length p38 gamma expressed in Escherichia coli cell assessed as substrate phosphorylation using fluorescence-labelled peptides as substrate at […] after 90 mins by microfluidic peptide phosphorylation assay"}, "[8]": {"target": "RAC-alpha serine/threonine-protein kinase (Homo sapiens) (UniProt P31749)", "sequence (P31749 whole entry, the tested form may be a part)": "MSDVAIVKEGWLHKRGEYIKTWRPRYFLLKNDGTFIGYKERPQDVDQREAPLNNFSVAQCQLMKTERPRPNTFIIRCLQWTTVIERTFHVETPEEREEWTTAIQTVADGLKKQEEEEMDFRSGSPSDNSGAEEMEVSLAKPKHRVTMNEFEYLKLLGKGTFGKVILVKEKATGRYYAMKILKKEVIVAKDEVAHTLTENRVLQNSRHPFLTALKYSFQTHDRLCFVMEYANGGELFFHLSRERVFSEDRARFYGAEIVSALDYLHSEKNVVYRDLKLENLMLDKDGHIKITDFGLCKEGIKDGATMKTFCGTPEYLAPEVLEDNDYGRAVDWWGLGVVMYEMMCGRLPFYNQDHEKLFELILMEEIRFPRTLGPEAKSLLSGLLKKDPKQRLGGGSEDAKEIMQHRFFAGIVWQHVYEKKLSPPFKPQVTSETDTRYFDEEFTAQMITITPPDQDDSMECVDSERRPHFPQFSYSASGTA", "assay": "Inhibition of human AKT1 catalytic domain expressed in baculovirus assessed as substrate phosphorylation using fluorescence-labelled peptides as substrate at 70 uM after 90 mins by microfluidic peptide phosphorylation assay"}, "[9]": {"target": "Fibroblast growth factor receptor 4 (Homo sapiens) (UniProt P22455)", "sequence (P22455 22-802 limits assumed)": "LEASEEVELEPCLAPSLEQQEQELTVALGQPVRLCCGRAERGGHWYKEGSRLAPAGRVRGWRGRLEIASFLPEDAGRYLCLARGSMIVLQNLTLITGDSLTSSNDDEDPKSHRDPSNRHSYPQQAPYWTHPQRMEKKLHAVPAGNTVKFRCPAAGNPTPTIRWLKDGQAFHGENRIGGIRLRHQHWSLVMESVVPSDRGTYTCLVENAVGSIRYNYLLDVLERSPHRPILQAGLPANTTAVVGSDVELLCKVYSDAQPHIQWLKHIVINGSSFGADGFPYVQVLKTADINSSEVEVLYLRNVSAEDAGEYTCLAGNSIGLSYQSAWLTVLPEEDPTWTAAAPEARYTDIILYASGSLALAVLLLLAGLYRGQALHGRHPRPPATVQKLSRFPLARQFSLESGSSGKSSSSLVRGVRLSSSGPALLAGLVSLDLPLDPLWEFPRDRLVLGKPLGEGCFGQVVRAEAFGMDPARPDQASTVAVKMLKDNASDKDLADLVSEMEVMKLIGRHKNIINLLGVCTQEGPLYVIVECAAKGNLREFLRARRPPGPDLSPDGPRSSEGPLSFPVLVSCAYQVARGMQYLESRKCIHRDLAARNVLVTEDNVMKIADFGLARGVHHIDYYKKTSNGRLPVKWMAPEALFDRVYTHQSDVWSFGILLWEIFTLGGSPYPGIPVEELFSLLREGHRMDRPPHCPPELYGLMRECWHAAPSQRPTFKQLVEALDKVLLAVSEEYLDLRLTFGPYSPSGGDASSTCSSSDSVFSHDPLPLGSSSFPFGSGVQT", "assay": "Inhibition of human FGFR4 catalytic domain expressed in baculovirus assessed as substrate phosphorylation using fluorescence-labelled peptides as substrate at 1000 uM after 90 mins by microfluidic peptide phosphorylation assay"}, "[10]": {"target": "T4, MAP kinase-activated protein kinase 5 (Homo sapiens) (UniProt Q8IW41)", "T4 sequence (whole entry)": "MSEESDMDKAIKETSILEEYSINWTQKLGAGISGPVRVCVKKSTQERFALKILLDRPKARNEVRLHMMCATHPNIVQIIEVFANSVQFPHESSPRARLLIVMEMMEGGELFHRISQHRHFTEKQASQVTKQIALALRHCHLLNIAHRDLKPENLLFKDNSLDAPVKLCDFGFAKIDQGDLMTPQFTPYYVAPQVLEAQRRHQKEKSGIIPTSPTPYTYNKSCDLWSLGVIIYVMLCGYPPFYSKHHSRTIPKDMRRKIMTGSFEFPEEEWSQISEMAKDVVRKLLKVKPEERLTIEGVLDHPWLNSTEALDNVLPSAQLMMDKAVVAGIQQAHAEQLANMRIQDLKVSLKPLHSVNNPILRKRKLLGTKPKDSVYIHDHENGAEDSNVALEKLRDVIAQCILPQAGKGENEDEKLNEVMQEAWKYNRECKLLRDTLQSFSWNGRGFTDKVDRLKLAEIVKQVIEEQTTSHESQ", "assay": "Inhibition of human full length PRAK expressed in baculovirus assessed as substrate phosphorylation using fluorescence-labelled peptides as substrate at 1000 uM after 90 mins by microfluidic peptide phosphorylation assay"}}}
{"smiles": "Clc1ccc(C2(c3ccc(-c4ncnc5[nH]cnc45)cc3)CCNCC2)cc1", "values": [{"measurement": "inhibition", "setting": "[1]", "value": 13, "unit": "%"}]}
{"smiles": "c1nc(N2CCOCC2)c2nc[nH]c2n1", "values": [{"measurement": "inhibition", "setting": "[2]", "value": 99, "unit": "%"}]}
{"smiles": "NCC1CN(c2ncnc3[nH]c4cnccc4c23)CCO1", "note": "(stereo not given)", "values": [{"measurement": "inhibition", "setting": "[3]", "value": 48.5, "unit": "%"}, {"measurement": "inhibition", "setting": "[4]", "value": 13, "unit": "%"}]}
{"smiles": "C[C@H](CN(C)C)Oc1nc(Nc2cc3cccc(Cl)c3cn2)cnc1C#N", "values": [{"measurement": "inhibition", "setting": "[5]", "value": 0, "unit": "%"}]}
{"smiles": "NCCc1ccc(-c2ncnc3[nH]cnc23)cc1", "values": [{"measurement": "inhibition", "setting": "[6]", "value": 72, "unit": "%"}]}
{"smiles": "COC(=O)c1cnc(Nc2cnc(C#N)cn2)cc1NCC1CCNCC1", "values": [{"measurement": "inhibition", "setting": "[7]", "value": 1.5, "unit": "%"}]}
{"smiles": "CNCc1ccc(-c2ncnc3[nH]cnc23)cc1", "values": [{"measurement": "inhibition", "setting": "[8]", "value": 64.5, "unit": "%"}]}
{"smiles": "c1cnc2[nH]ccc2c1", "values": [{"measurement": "inhibition", "setting": "[9]", "value": 28.5, "unit": "%"}, {"measurement": "inhibition", "setting": "[10]", "value": 77, "unit": "%"}]}
